Where two headings read alike, the source gives them in different places.
Assays:
Test in all cases: In vitro percent disease control (radii of spore growth on agar)
Format in all cases: cell-based
[1] = tested on: Pyricalaria oryzae; conditions: for inhibition of growth at 50 ppm: read-out: % controlled, Py. or., 50 ppm; for inhibition of growth at 100 ppm: read-out: % controlled, Py. or., 100 ppm
How it was run: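 Compounds at 100 ppm and 50 ppm (10% acetone in water) mixed into potato-sucrose-agar, P. oryzae spotted centrally and incubated several days. Percent disease control derived from radii of spore growth.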

[2] = tested on: Fusarium moniliforme
How it was run: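 Compounds in 10% acetone/water at 100 and 50 ppm were mixed into potato-sucrose-agar, with Fusarium moniliforme spotted centrally. After several days' incubation, percent disease control was derived from radii of spore growth.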

[3] = tested on: Phytophthora capsisi; conditions: Phytophthora, read-out: % controlled, Phy ca.
How it was run: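 Compounds dissolved in acetone (10% of final volume) then water at 100 ppm and 50 ppm, mixed into potato-sucrose-agar; fungus spotted at plate centre and incubated several days. Percent disease control derived from radii of spore growth.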

[4] = tested on: Rhizoctonia solani; conditions: Rhizoctonia solani, read-out: % controlled, Rhy. so.
How it was run: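 Test compounds at 100 ppm and 50 ppm (acetone 10% of final volume, then water) were mixed into potato-sucrose-agar, and the fungus was spotted at the dish centre. Dishes were incubated several days in a growth room. Percent disease control was derived from the radii of spore growth.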

[5] = tested on: Botry tris cinerea; conditions: read-out: % controlled, Bo ci.
How it was run: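 Compounds at 100 and 50 ppm (acetone 10% of final volume, rest water) mixed into potato-sucrose agar; Botrytis cinerea spotted at dish centre. After several days' incubation, percent disease control calculated from radii of spore growth.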

[6] = tested on: Physalospora baccae; conditions: read-out: % controlled, Phy ba.
How it was run: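 Compounds at 100 and 50 ppm (10% acetone) mixed into potato-sucrose-agar, fungus spotted centrally and grown several days in a growth room. Percent disease control derived from radii of spore growth.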

[7] = tested on: Alternaria mali; conditions: Alternaria mali, read-out: % controlled, Al.
How it was run: (§1)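 Compounds in acetone (10% of final volume) diluted with water to 100 and 50 ppm, then mixed into potato-sucrose-agar with each fungus spotted centrally. Incubated several days in a growth room; percent disease control derived from radii of spore growth.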

[8] = tested on: Rhizopus sp.; conditions: Rhizopus
How it was run: as §1

[9] = tested on: Botryosphaeria dothidea Macrophoma sp.; conditions: Botryosphaeria dothidea, read-out: % controlled, Bo.do (Ma.)
How it was run: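 Compounds (100 and 50 ppm, 10% acetone in water) were mixed into potato-sucrose-agar and the fungus was spotted centrally, then incubated several days in a growth room. Percent disease control came from radii of spore growth.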

[10] = tested on: Glomerella cingulata; conditions: Colletotrichum gloeosporioides, read-out: % controlled, Glo.
How it was run: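 Compounds were dissolved in acetone (10% of final volume) plus water at 100 ppm and 50 ppm and mixed into potato-sucrose agar. G. cingulata was spotted centrally and incubated for several days in a growth room. Percent disease control was derived from the radii of spore growth.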

[11] = read-out: % controlled, Rhi. sp.
[12] = 50 ppm, read-out: % controlled, Rhi. sp.

| Compound | inhibition of growth at 50 ppm [1] | inhibition of growth at 100 ppm [1] | % controlled, Fu. mo. ([2]; 50 ppm) | % controlled, Fu. mo. ([2]; 100 ppm) | inhibition of growth at 50 ppm [3] | inhibition of growth at 100 ppm [3] | inhibition of growth at 50 ppm [4] | inhibition of growth at 100 ppm [4] | inhibition of growth at 50 ppm [5] | inhibition of growth at 100 ppm [5] | inhibition of growth at 50 ppm [6] | inhibition of growth at 100 ppm [6] | inhibition of growth at 50 ppm [7] | inhibition of growth at 100 ppm [7] | inhibition of growth at 100 ppm [8, 11] | inhibition of growth at 50 ppm [9] | inhibition of growth at 100 ppm [9] | inhibition of growth at 50 ppm [10] | inhibition of growth at 100 ppm [10] | inhibition of growth at 50 ppm [8, 12] | also measured |
| --- | --- | --- | --- | --- | --- | --- | --- | --- | --- | --- | --- | --- | --- | --- | --- | --- | --- | --- | --- | --- | --- |
| CCOc1ccc([Si](C)(C)C[Si](C)(Cn2cncn2)c2ccc(F)cc2)cc1 (centres unmarked) [4-(4-ethoxyphenyl)-2-(4-fluorophenyl)-2,4-dimethyl-2,4-disila-1-(1H-1,2,4-triazol-1-yl)pentane] | 100% | 100% | 58% | 63% | 50% | 60% | 78% | 78% | 69% | 66% | 53% | 74% | 63% | 72% | 43% | 74% | 78% | 71% | 77% | – | inhibition of growth at 50 ppm ([8]; read-out: % controlled, Rhi. sp., 50 ppm): 19% |
| CCOc1ccc([Si](C)(C)C[Si](Cn2cncn2)(c2ccc(F)cc2)c2ccc(Cl)cc2)cc1 (centres unmarked) [2-(4-chlorophenyl)-4-(4-ethoxyphenyl)-2-(4-fluorophenyl)-4-methyl-2,4-disila-1-(1H-1,2,4-triazol-1-yl)pentane] | 100% | 100% | 46% | 46% | 23% | 25% | 96% | 96% | 90% | 90% | 69% | 69% | 75% | 79% | 50% | 74% | 79% | 87% | 87% | 50% | – |
| C[Si](C)(C[Si](Cn1cncn1)(c1ccc(Cl)cc1)c1ccc(Cl)cc1)c1ccc(F)cc1 [2,2-bis(4-chlorophenyl)-4-(4-fluorophenyl)-4-methyl-2,4-disila-1-(1H-1,2,4-triazol-1-yl)pentane] | 57% | 57% | 41% | 55% | 6% | 9% | 43% | 77% | 37% | 53% | 44% | 48% | 51% | 58% | 32% | 54% | 61% | 0% | 0% | 26% | – |
| C=CC[Si](C)(Cn1cncn1)C[Si](CC=C)(c1ccccc1)c1ccc(-c2ccccc2)cc1 (centres unmarked) [4-methyl-6-phenyl-6-(4-phenylphenyl)-4,6-disila-4-(1H-1,2,4-triazol-1-ylmethyl)-1,8-nonadiene] | 100% | 100% | 100% | 100% | 38% | 60% | 80% | 100% | 77% | 100% | 84% | 100% | 72% | 100% | 56% | 100% | 100% | 100% | 100% | 40% | – |
